Holding throughout (experiment): NCI anticancer screen, dose series, 48 h
Assay [1] concerns UACC-62 melanoma.
Assay [2] has as its system NCI/ADR-RES ovarian.
Assay [3] deals with NCI-H23 lung.
Assay [4] relates to HL-60(TB) leukemia.
The test system of assay [5] is T-47D breast.
The test system of assay [6] is RXF 393 renal.
Assay [7] has as its system NCI-H226 lung.
Assay [8] deals with HCT-116 colon.
In assay [9] the test system is LOX IMVI melanoma.
Assay [10] relates to SNB-75 CNS.

Structures are written as SMILES.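 Grown in 96-well plates, cells were treated for 48 hours with each compound at five concentrations. Insufficient inhibition: endpoint recorded as highest concentration tested. GI50 is the concentration that inhibits growth by half. At the TGI there is no net growth.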

With `CN(C)c1ccc(/C=N/S(=O)(=O)c2ccc(-n3c(-c4ccccc4)nc4c(Br)cc(Br)cc4c3=O)cc2)cc1`, the GI50 was 28.3 µM in assay [1]; 44.6 µM in assay [2]; 37.7 µM in assay [3]; 34.4 µM in assay [4]; 24.5 µM in assay [5]; 50.2 µM in assay [6]. Further, the GI50 is 53.8 µM in assay [7], 33.2 µM in assay [8], 46.1 µM in [9] and 24.7 µM in [10]. In addition, the TGI was over 92.8 µM in assay [1]; over 100 µM in assay [2]; 92.6 µM in assay [3]; 84.2 µM in assay [4]; 88 µM in assay [5]; over 100 µM in assay [6]. For the same compound, the TGI is over 100 µM in assay [7], over 100 µM in [8], over 100 µM in [9] and 71.3 µM in assay [10].
For `CN(C)c1cccc(F)c1C(=O)NC(=O)Nc1ccc(Cl)cc1`, the TGI is over 100 µM in assay [1]; over 44.4 µM in assay [2]; over 100 µM in assay [3]; 18.1 µM in assay [4]; over 100 µM in assay [5]; 69.6 µM in assay [6]. The TGI in assay [7] is over 100 µM; in [8] it was over 100 µM; in [9] it was over 100 µM; in assay [10], 9.12 µM.
Turning to `O=[N+]([O-])c1cc2no[n+]([O-])c2cc1N1CCCCC1`, the TGI in assay [1] is 33.8 µM; in [2], over 20.8 µM; in assay [3], 43.4 µM; in [4], 5.29 µM; in assay [5], 5.53 µM; in assay [6], 3.29 µM. In addition, the TGI in assay [7] was over 100 µM; in [8], 5.99 µM; in assay [9] it was 4.81 µM; in [10], 9.8 µM.
For `COc1cnc2c(c1)C(=O)c1c-2n(CCCN2CCC(O)CC2)c(=O)c2cc(Cl)ccc12`, the GI50 in [1] was 0.191 µM; in assay [2] it was 0.167 µM; in [3], 0.248 µM; in [4], 0.929 µM; in assay [5], 0.656 µM; in assay [6], 0.347 µM. Besides, the GI50 in [7] was 0.662 µM; in [8], 0.0987 µM; in assay [9], 0.0758 µM; in [10], 10.4 µM. Also, the TGI in assay [1] was 13.7 µM; in [2] it was 2.31 µM; in assay [3], 1.74 µM; in assay [4] it was 4.32 µM; in assay [5], 4.69 µM; in [6], 1.72 µM. The TGI was 23.6 µM in assay [7], 2.18 µM in assay [8], 1.46 µM in [9] and 24.6 µM in assay [10].
On to `NC1(Cc2ccc(Cl)cc2)CCN(c2ncnc3[nH]ccc23)CC1`, for which the GI50 was 5.85 µM in [1]; 9.97 µM in [2]; 4.55 µM in assay [3]; 3.39 µM in [4]; 1.59 µM in assay [5]; 1.41 µM in assay [6]. Also, the GI50 is 6.96 µM in assay [7], 5.18 µM in assay [8], 4.43 µM in assay [9] and 0.437 µM in [10]. In addition, the TGI in [1] was 20.4 µM; in [2], 26.5 µM; in assay [3] it was 21 µM; in [4], 17.6 µM; in assay [5], 14.7 µM; in assay [6], 7.12 µM. The TGI in assay [7] amounted to 25.1 µM; in assay [8], 38.7 µM; in assay [9] it was 17.7 µM; in assay [10], 4.37 µM.
With `Cc1ccc(C2NC(=O)c3ccccc3N2)c(C)c1` (stereo not given), the TGI is over 100 µM in assay [1]; 6.5 µM in assay [2]; over 87 µM in [3]; 1.61 µM in assay [4]; over 100 µM in [5]; over 76.2 µM in assay [6]. Besides, the TGI was 47.8 µM in assay [7], over 100 µM in [8], over 100 µM in assay [9] and 6.8 µM in assay [10].
For `O=[N+]([O-])c1cc([N+](=O)[O-])c(Cl)cc1Cl`, the GI50 in [1] is 1.88 µM; in assay [2], 1.32 µM; in assay [3], 1.4 µM; in assay [4], 0.456 µM; in assay [5], 1.71 µM; in [6], 1.68 µM. The GI50 in assay [7] is 2.22 µM; in [8], 0.661 µM; in assay [9], 0.361 µM; in [10], 1.51 µM. Also, the TGI in assay [1] came to 3.82 µM; in [2] it was 2.94 µM; in [3], 3 µM; in assay [4], 2.7 µM; in assay [5], 4.42 µM; in assay [6], 3.09 µM. The TGI was determined as 5.78 µM in [7], 2.17 µM in assay [8], 1.46 µM in [9] and 2.92 µM in assay [10].
Regarding `CC(=O)OC1=CC2(OC(C)=O)CC(C)(C)C1C1C(=O)C=CC(=O)C12` (stereo not given), the TGI was 56.7 µM in [1]; over 100 µM in assay [2]; over 100 µM in assay [3]; over 100 µM in assay [4]; over 100 µM in assay [5]; over 100 µM in assay [6]. For the same compound, the TGI in [7] was over 100 µM; in assay [8] it was over 89.4 µM; in assay [9], over 56.1 µM; in assay [10] it was over 100 µM.
As for `CC1=Nc2c([nH]c(=S)[nH]c2=O)NC(c2c(Cl)cccc2Cl)C1` (stereo not given), the TGI in assay [1] amounted to 4.45 µM; in [2], 0.412 µM; in assay [3], 7.4 µM; in assay [4], 2.54 µM; in [5], 3.21 µM; in [6], 9.91 µM. For the same compound, the TGI in assay [7] turned out to be 15 µM; in assay [8] it was 1.59 µM; in assay [9], 1.84 µM; in assay [10], 10.6 µM.
On to `NC(=O)c1sc(-n2cnc3cc(C(F)(F)F)ccc32)cc1OCc1ccccc1Br`, for which the GI50 was over 21.6 µM in assay [1]; over 17.4 µM in assay [2]; over 25 µM in assay [3]; over 25 µM in assay [4]; over 21 µM in assay [5]; over 12.9 µM in [6]. Besides, the GI50 in [7] is over 17.2 µM; in assay [8], over 16 µM; in assay [9], over 17.5 µM; in [10], 8.72 µM. The TGI in assay [1], in assay [2], in assay [3], in [4], in assay [5] and in [6] was over 25 µM throughout. Moreover, the TGI in [7] was over 25 µM; in assay [8], over 25 µM; in assay [9], over 25 µM; in [10] it was over 18.8 µM.

The values are drawn from PubChem BioAssay (NCI).
